{"source": "patent US10259815B2", "about": "“Gabaergic ligands and their uses” (UWM Research Foundation, Inc., priority 2015, dated 2019)", "key": {"[1]": {"experiment": "Liver microsomal stability, mouse", "type": "in vitro ADME", "conditions": "for Mouse Liver microsome stability (reported in % remaining): 37° C., 4 μM compound, 30 minutes", "description": "(§1) In vitro metabolism studies were done in mouse, rat, human, and dogs cells (TABLE 2).\n(§2) In vitro liver microsomal studies were completed to measure the stability of the compounds against degradation in various species' liver microsomes.\n(§3) Compound was incubated in hepatic microsomes over a 30-minute incubation period at 37° C. Incubations both with and without NADPH (2 mM) were performed in a 96-well plate format. The reaction was initiated with the addition of substrate and was terminated by protein precipitation. All incubations were performed using a final substrate concentration of 4 μM in 50 mM sodium phosphate buffer, pH 7.4. The final organic solvent content was 0.5% acetonitrile and 0.02% DMSO. The amount of enzyme present was fixed at 1.11 mg/mL protein irrespective of the species of microsomes used. Samples were analyzed by LC/MS-MS to determine the percent loss in the NAPDH incubations relative to the NADPH free incubations."}, "[2]": {"experiment": "Liver microsomal stability, human", "type": "in vitro ADME", "conditions": "for Human Liver microsome stability (reported in % remaining): 37° C., 4 μM compound, 30 minutes", "description": "as §1, §2, §3"}, "[3]": {"experiment": "Liver microsomal stability, dog", "type": "in vitro ADME", "conditions": "for Dog Liver microsome stability (reported in % remaining): 37° C., 4 μM compound, 30 minutes", "description": "as §1, §2, §3"}, "[4]": {"biological_target": "T1, α3, β3, γ2 GABA A receptor (Homo sapiens, UniProt P18507+P34903)", "T1 construct": "host or cells: HEK-293, stably transfected", "T1 sequence (P34903 29-492)": "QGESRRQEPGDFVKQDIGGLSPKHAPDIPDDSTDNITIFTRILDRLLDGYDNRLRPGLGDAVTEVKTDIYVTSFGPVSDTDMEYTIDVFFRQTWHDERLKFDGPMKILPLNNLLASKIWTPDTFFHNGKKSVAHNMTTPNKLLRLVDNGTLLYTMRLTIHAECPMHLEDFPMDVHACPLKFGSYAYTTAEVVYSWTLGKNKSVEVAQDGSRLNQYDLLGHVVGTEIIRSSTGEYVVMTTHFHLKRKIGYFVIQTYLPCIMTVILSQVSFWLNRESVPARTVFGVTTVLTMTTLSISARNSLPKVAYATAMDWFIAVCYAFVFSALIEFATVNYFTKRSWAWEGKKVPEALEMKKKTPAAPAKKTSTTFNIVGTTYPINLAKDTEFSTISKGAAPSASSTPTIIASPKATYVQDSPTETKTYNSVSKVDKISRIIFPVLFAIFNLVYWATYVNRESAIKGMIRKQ", "T1 sequence (P28472 26-473 partner)": "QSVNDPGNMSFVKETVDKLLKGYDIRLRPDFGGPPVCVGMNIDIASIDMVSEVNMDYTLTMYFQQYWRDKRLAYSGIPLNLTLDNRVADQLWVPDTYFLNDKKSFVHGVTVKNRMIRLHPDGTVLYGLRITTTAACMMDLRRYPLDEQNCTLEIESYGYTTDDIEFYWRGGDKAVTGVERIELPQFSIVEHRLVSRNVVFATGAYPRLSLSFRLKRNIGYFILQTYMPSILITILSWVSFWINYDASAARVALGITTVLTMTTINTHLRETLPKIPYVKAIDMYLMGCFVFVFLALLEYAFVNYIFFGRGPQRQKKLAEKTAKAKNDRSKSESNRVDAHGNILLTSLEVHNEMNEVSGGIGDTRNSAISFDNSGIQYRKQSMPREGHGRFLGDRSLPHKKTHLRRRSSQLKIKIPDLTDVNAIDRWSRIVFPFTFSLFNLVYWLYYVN", "T1 sequence (P18507 40-475)": "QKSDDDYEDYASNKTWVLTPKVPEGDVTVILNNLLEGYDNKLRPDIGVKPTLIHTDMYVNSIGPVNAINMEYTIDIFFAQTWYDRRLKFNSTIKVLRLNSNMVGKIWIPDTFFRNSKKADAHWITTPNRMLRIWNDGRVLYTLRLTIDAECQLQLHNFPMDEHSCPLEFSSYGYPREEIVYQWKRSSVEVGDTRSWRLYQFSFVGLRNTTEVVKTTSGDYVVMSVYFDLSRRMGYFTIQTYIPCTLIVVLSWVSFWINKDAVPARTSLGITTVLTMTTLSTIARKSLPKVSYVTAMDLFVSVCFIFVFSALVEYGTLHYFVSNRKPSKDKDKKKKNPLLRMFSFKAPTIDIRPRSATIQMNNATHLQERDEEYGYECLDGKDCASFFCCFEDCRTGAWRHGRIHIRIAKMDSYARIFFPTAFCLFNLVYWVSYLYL", "experiment": "FLIPR functional assay, α3 GABAA receptor subtype in HEK-293 cells", "type": "cell-based", "conditions": "α3 Binding EC50, FLIPR membrane potential, potentiation of GABA EC20", "from_the_text": "(§4) The FLIPR functional assay is used to determine the EC50 at the α1 and α3 GABAA receptor subtypes. A high EC50 for the α1 subtype would indicate a low chance of adverse effects, including sedation, ataxia, and muscle relaxation. A low α3 EC50 would indicate potential effectiveness as an anxiolytic, antihyperalgesic, and likely an anticonvulsant. See, for example, Liu et al. (Assay. Drug. Dev. Technol. 2008, 6, 781-6) and Joesch et al. (J. Biomol. Screen. 2008, 13, 218-28).\n(§5) Compounds tested were synthesized internally and solubilized in DMSO at a 10 mM concentration. GABA was purchase from Sigma (#A2129) and prepared at 100 mM in water.\n(§6) HEK-293 cells were stably transfected with the α1, β3, γ2 GABA A receptor subunits (GenBank accession numbers NM_000806.3, NM_000814.5, and NM_198904.1, respectively) or α3, β3, γ2 (NM_000808 for α3) where obtained from ChanTest Co. (Catalog # CT6216 and CT6218, respectively).\n(§7) Cells were cultivated in Dulbeco's Modified Eagle's Medium (DMEM, Sigma D5796) supplemented with 10% Fetal Bovine Serum (FBS, Gibco 16000), 0.5 mg/mL Geneticin (Gibco), 0.04 mg/mL Hygromycin B (Gibco), 0.1 mg/mL Zeocin (Gibco) and 20 mM HEPES (Sigma). Cells were grown at 37° C. in a humidified atmosphere of 5% CO2. In the experiments described here frozen cells were used. For this purpose, cells were gown and maintained under confluency during 2-3 weeks and then frozen down at different cell densities using Recovery™ Cell Culture Freezing Medium (Gibco).\n(§8) 18 hours prior to the experiment, cells were quickly thawed at 37° C. and seeded on Poly-D-Lys 384 plates (Corning 356663) at a density of 25,000 cells/well and in 25 μL of complete cell medium as described above.\n(§9) Membrane potential changes induced by the flux of ions through the receptor were measured as relative fluorescence units (RFU) using the Fluorometric Imaging Plate Reader (FLIPR Tetra®, Molecular Devices) and the FLIPR Membrane Potential Blue Assay kit (Molecular Devices). Prior to the addition of the compounds the medium was removed and cells were loaded with 20 μL of dye prepared in assay buffer composed of Hank's Balanced Salt Solution (HBSS with Ca^+2 and Mg^+2; Gibco 14025) with 20 mM Hepes. After 1 hour of incubation at room temperature (RT), the plate was placed into the FLIPR instrument and experiments were run adding first 10 μL from the 1st addition plate (compound plate) and after a 3 minutes incubation adding 20 μL of the 2nd addition or agonist plate. The response to this last GABA addition was monitored for another 3 minutes. […]\n(§10) Data Analysis. The difference between the maximum and the minimum (Max-Min) fluorescence reached during the first addition or read interval and the second read interval were used for data analysis (agonist and potentiation, respectively). […]"}, "[5]": {"experiment": "Liver microsomal stability, rat", "type": "in vitro ADME", "conditions": "for Rat Liver microsome stability (reported in % remaining): 37° C., 4 μM compound, 30 minutes", "description": "as §1, §2, §3"}, "[6]": {"biological_target": "T2, α1, β3, γ2 GABA A receptor (Homo sapiens, UniProt P14867+P18507)", "T2 construct": "host or cells: HEK-293, stably transfected", "T2 sequence (P14867 28-456)": "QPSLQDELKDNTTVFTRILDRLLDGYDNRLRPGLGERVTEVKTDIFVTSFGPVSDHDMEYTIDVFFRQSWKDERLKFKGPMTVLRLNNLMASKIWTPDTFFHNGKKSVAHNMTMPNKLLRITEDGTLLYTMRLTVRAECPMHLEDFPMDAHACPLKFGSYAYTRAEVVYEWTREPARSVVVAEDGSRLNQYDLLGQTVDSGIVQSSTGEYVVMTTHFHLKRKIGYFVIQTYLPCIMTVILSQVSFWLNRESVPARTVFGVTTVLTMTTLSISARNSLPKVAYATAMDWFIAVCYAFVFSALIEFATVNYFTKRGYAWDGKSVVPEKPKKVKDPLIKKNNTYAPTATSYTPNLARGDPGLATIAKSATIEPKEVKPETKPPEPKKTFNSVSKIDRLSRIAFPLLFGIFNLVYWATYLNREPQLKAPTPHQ", "T2 sequence (P28472 26-473 partner)": "as the sequence (P28472 26-473 partner) above", "T2 sequence (P18507 40-475)": "as the sequence (P18507 40-475) above", "experiment": "FLIPR functional assay, α1 GABAA receptor subtype in HEK-293 cells", "type": "cell-based", "from_the_text": "as §4, §5, §6, §7, §8, §9, §10"}, "Male NIH Swiss mice": {"test_system": "Male NIH Swiss mice", "experiment": "Rotorod assay (ataxia)", "type": "in vivo", "description": "Male NIH Swiss mice (n=10) were dosed i.p. with vehicle (1% carboxymethyl cellulose) or one of the test compounds (10 or 30 mg/kg) 30 minutes prior to being tested on the rotorod. Mice were placed on a rod for two minutes at 4 revolutions per minute. […] Mice that fell twice failed the testing.\nThe rotorod assay (FIG. 5) is used to determine the ataxic effects, generally stemming from the α1 subtype, that compounds have in test subjects. Mice are trained to run on a slow, rotating cylinder for two minutes, and failure to stay on the rod may be due to ataxia. […] Each set of compounds were tested against a vehicle.\nMale NIH Swiss mice (n=10/group) were trained on a rotorod (Ugo Basile 7650) at 4 r.p.m. for two minutes per training session prior to testing. On test day, mice were dosed i.p. with either vehicle (1% carboxymethyl cellulose) or one of the test compounds (10 or 30 mg/kg) 30 minutes prior to testing."}}, "note": "“And” between values parts separate entries of the source, which are not always exact repeats. Equal values may be shown once. “Also recorded” adds a separate entry of the source.", "data": [{"smiles": "C#Cc1ccc2c(c1)C(c1ccccc1F)=NCc1c(-c3cnco3)ncn1-2", "note": "[KRM-II-18B, 5-(8-Ethynyl-6-(2-fluorophenyl)-4H-benzo[f]imidazo[1,5-a][1,4]diazepin-3-yl)oxazole]", "values": [{"measurement": "Mouse Liver microsome stability (reported in % remaining)", "setting": "[1]", "result": 79, "unit": "% remaining"}, {"measurement": "Human Liver microsome stability (reported in % remaining)", "setting": "[2]", "result": 78, "unit": "% remaining"}, {"measurement": "Dog Liver microsome stability (reported in % remaining)", "setting": "[3]", "result": 87, "unit": "% remaining"}, {"measurement": "EC50", "setting": "[4]", "result": 0.0112, "unit": "µM"}, {"measurement": "Rat Liver microsome stability (reported in % remaining)", "setting": "[5]", "result": 68, "unit": "% remaining"}, {"measurement": "EC50", "setting": "[6]", "result": "> 20", "unit": "µM"}, {"measurement": "rotorod performance at 30 mg/kg", "setting": "Male NIH Swiss mice; 30 mg/kg i.p., 30 minutes prior, 4 r.p.m., two minutes", "result": "failed multiple times"}]}, {"smiles": "C#Cc1ccc2c(c1)C(c1ccccn1)=NCc1c(-c3cnco3)ncn1-2", "note": "[KRM-II-81, 5-(8-Ethynyl-6-(pyridin-2-yl)-4H-benzo[f]imidazo[1,5-a][1,4]diazepin-3-yl)oxazole]", "values": [{"measurement": "Mouse Liver microsome stability (reported in % remaining)", "setting": "[1]", "result": 90, "unit": "% remaining"}, {"measurement": "Mouse % Metabolized", "setting": "[1]; in vitro metabolism, mouse", "result": 10.1, "unit": "%"}, {"measurement": "Human Liver microsome stability (reported in % remaining)", "setting": "[2]", "result": 91, "unit": "% remaining"}, {"measurement": "Human % Metabolized", "setting": "[2]; in vitro metabolism, human", "result": 8.6, "unit": "%"}, {"measurement": "Dog Liver microsome stability (reported in % remaining)", "setting": "[3]", "result": 94, "unit": "% remaining"}, {"measurement": "Dog % Metabolized", "setting": "[3]; in vitro metabolism, dog", "result": 5.9, "unit": "%"}, {"measurement": "EC50", "setting": "[4]", "result": "0.97 µM and 0.937 µM"}, {"measurement": "Rat Liver microsome stability (reported in % remaining)", "setting": "[5]", "result": 90, "unit": "% remaining"}, {"measurement": "Rat % Metabolized", "setting": "[5]; in vitro metabolism, rat", "result": 9.6, "unit": "%"}, {"measurement": "EC50", "setting": "[6]", "result": "> 20", "unit": "µM"}, {"measurement": "ataxic / sedative effects in rotarod assay", "setting": "Male NIH Swiss mice; 10 or 30 mg/kg i.p.", "result": "less sedative effects than HZ-166; also recorded: no significant ataxic concerns"}]}]}
